Measurements reported in paper PMC9481151, “Discovery of new symmetrical and asymmetrical nitrile-containing 1,4-dihydropyridine derivatives as dual kinases and P-glycoprotein inhibitors: synthesis, in vitro assays, and in silico studies” (Journal of Enzyme Inhibition and Medicinal Chemistry, 2022).
Converted amounts (≈) assume the structure as drawn.

Columns and labels:
K-562 = experiment: NCI single dose (10 µM) SRB screen; assay type: cell-based, human; conditions: leukaemia, 48 h
EKVX = experiment: NCI single dose (10 µM) SRB screen; assay type: cell-based, human; conditions: non-small cell lung cancer, 48 h
HOP-62 = experiment: NCI single dose (10 µM) SRB screen; assay type: cell-based, human; conditions: non-small cell lung cancer, 48 h
HOP-92 = experiment: NCI single dose (10 µM) SRB screen; assay type: cell-based, human; conditions: non-small cell lung cancer, 48 h
HCC-2998 = experiment: NCI single dose (10 µM) SRB screen; assay type: cell-based, human; conditions: colon cancer, 48 h
HCT-15 = experiment: NCI single dose (10 µM) SRB screen; assay type: cell-based, human; conditions: colon cancer, 48 h
SK-MEL-2 = experiment: NCI single dose (10 µM) SRB screen; assay type: cell-based, human; conditions: melanoma, 48 h
UACC-62 = experiment: NCI single dose (10 µM) SRB screen; assay type: cell-based, human; conditions: melanoma, 48 h
UO-31 = experiment: NCI single dose (10 µM) SRB screen; assay type: cell-based, human; conditions: renal cancer, 48 h
MDA-MB-231 = experiment: NCI single dose (10 µM) SRB screen; assay type: cell-based, human; conditions: breast cancer, 48 h
HS578T = experiment: NCI single dose (10 µM) SRB screen; assay type: cell-based, human; conditions: breast cancer, 48 h
BT-549 = experiment: NCI single dose (10 µM) SRB screen; assay type: cell-based, human; conditions: breast cancer, 48 h
T-47D = experiment: NCI single dose (10 µM) SRB screen; assay type: cell-based, human; conditions: breast cancer, 48 h
[1] = system: drug-resistant HCT-116/ADR cells; experiment: Potentiation of DOX cytotoxicity (reversal DOX effect, P-gp modulation); assay type: cell-based, human; conditions: IC50 (DOX) without modulator / IC50 (DOX) with modulator
EGFR = EGFR (Homo sapiens, UniProt P00533); experiment: EGFR kinase inhibitory activity; assay type: biochemical; conditions: for EGFR Potency: (IC50 lapatinib/IC50 Compound)*100; for IC50: read-out: EGFR IC50 ± SD
HER-2 = HER-2 (Homo sapiens, UniProt P04626); experiment: HER-2 kinase inhibitory activity; assay type: biochemical; conditions: for HER-2 Potency: (IC50 lapatinib/IC50 Compound)*100; for IC50: read-out: HER-2 IC50 ± SD
BTK = BTK (Homo sapiens, UniProt Q06187); experiment: BTK inhibitory activity; assay type: biochemical; conditions: for BTK Potency: (IC50 lapatinib/IC50 Compound)*100; for IC50: read-out: BTK IC50 ± SD
HCT-116 cells [2] = experiment: Annexin V–FITC apoptosis assay; assay type: cell-based, human; conditions: HCT-116, 10 µM, 24 h
Source text: Apoptosis induction is the most important mechanism by chemotherapeutics killing tumour cells.[62]^,[63] Phosphatidylserine (PS) is translocated from the inside to the outside of the plasma membrane during apoptosis, causing cellular alterations. Annexin-V binds to PS and can be employed as a sensitive probe on the plasma membrane’s outer side.[64]^,[65]
PS externalisation was identified using the apoptosis detection kit (Annexin V-FITC/PI) (BD Biosciences) in accordance with the manufacturer’s guidelines.[79]

HCT-116 cells [3] = experiment: In vitro cell cycle analysis (DNA flow cytometry); assay type: cell-based, human; conditions: HCT-116, 24 h, IC50 concentrations
Procedure: Targeting the cancer cell cycle has been developed as a encouraging approach for cancer therapy.[66]
The cells were centrifuged, frozen in cold 75% ethanol, washed in phosphate buffered saline, resuspended with […] RNase, then stained with […] PI, and analysed with a FACS Calibur (Becton Dickinson, BD, Franklin Lakes, NJ). The cell cycle distributions were determined using Becton Dickinson’s CellQuest software version 5.1.[80]

HCT-116/ADR cells = experiment: cells; conditions: Homo sapiens, HCT-116, read-out: Cytotoxicity IC50, HCT-116/ADR
HCT-116 cells [4] = experiment: In vitro cytotoxicity; conditions: Homo sapiens, HCT-116, read-out: Cytotoxicity IC50, HCT-116
Pseudomonas aeruginosa = experiment: Agar well diffusion method; conditions: for zone of inhibition at 1000 µg/mL: Pseudomonas aeruginosa, 24 h, read-out: Diameter of inhibition zone, P. aeruginosa; for % activity index, P. aeruginosa: relative to ciprofloxacin
Candida albicans = experiment: Agar well diffusion method; conditions: for % activity index, C. albicans: relative to clotrimazole; for zone of inhibition at 1000 µg/mL: Candida albicans, 24 h, read-out: Diameter of inhibition zone, C. albicans
S. aureus = experiment: MIC, two-fold microbroth dilution method; conditions: Staphylococcus aureus, read-out: MIC (µg/mL) S. aureus
B. subtilis = experiment: MIC, two-fold microbroth dilution method; conditions: Bacillus subtilis, read-out: MIC (µg/mL) B. subtilis
E. coli = experiment: MIC, two-fold microbroth dilution method; conditions: Escherichia coli, read-out: MIC (µg/mL) E. coli
P. aeruginosa = experiment: MIC, two-fold microbroth dilution method; conditions: Pseudomonas aeruginosa, read-out: MIC (µg/mL) P. aeruginosa
C. albicans = experiment: MIC, two-fold microbroth dilution method; conditions: Candida albicans, read-out: MIC (µg/mL) C. albicans
A. flavus = experiment: MIC, two-fold microbroth dilution method; conditions: Aspergillus flavus, read-out: MIC (µg/mL) A. flavus

HER-2, sequence (P04626 23-1255): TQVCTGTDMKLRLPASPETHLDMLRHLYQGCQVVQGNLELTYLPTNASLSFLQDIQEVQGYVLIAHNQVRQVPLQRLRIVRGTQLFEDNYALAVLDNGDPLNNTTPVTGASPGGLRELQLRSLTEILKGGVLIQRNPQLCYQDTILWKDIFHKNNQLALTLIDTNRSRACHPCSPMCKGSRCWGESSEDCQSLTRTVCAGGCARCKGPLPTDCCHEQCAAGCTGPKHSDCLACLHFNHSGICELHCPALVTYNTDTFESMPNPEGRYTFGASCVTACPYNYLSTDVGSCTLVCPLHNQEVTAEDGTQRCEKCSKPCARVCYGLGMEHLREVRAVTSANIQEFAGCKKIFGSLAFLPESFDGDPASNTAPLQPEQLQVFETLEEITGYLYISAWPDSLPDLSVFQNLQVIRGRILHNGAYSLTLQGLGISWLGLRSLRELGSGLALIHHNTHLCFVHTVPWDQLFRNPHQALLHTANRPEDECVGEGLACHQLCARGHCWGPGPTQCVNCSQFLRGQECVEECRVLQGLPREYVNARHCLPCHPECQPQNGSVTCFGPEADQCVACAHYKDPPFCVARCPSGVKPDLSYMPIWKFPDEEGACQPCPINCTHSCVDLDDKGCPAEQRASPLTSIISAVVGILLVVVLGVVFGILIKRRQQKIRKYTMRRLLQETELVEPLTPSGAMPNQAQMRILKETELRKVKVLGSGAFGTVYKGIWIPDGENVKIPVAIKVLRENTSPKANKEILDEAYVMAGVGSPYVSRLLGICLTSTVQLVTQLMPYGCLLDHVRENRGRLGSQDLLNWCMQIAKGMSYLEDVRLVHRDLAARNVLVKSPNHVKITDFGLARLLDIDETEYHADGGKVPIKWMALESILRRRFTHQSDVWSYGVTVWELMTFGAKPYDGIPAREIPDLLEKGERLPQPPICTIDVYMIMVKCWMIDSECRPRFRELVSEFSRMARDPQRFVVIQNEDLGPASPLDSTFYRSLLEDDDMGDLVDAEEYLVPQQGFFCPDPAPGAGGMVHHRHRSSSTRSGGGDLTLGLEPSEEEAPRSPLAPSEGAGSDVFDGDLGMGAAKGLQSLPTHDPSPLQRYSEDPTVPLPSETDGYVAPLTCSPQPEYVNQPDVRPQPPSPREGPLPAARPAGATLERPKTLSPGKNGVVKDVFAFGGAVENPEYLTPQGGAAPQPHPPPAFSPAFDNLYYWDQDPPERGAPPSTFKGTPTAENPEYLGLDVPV
EGFR, sequence (P00533 25-1210): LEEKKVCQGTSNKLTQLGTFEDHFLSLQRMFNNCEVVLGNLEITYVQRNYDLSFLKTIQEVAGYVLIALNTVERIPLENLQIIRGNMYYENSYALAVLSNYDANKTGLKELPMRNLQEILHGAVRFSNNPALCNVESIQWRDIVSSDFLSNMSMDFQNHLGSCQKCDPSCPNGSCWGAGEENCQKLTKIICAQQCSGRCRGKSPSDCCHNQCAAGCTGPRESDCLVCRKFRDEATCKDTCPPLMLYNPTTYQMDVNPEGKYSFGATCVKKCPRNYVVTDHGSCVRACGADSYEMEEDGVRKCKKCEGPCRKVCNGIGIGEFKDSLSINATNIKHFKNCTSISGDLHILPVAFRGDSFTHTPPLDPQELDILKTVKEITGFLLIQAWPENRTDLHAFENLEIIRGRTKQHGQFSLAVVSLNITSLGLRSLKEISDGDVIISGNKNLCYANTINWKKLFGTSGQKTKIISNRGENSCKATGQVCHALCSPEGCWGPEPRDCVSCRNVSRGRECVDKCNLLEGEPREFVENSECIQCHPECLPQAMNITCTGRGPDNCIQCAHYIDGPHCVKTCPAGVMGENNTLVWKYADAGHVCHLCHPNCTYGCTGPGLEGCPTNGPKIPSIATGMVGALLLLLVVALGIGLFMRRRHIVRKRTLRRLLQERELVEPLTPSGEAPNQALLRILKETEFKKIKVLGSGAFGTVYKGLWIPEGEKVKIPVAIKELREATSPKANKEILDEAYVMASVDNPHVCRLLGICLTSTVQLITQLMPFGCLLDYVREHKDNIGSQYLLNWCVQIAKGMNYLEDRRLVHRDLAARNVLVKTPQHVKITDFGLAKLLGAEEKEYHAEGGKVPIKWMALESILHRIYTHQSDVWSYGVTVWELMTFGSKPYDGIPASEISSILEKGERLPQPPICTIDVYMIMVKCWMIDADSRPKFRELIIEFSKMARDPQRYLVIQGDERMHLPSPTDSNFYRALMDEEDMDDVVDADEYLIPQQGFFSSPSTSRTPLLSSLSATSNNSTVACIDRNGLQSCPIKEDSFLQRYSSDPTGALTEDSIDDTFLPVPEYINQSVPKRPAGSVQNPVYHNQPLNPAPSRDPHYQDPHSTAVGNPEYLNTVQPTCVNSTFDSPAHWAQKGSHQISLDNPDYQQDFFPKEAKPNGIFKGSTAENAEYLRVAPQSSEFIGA
BTK, sequence (Q06187 whole entry): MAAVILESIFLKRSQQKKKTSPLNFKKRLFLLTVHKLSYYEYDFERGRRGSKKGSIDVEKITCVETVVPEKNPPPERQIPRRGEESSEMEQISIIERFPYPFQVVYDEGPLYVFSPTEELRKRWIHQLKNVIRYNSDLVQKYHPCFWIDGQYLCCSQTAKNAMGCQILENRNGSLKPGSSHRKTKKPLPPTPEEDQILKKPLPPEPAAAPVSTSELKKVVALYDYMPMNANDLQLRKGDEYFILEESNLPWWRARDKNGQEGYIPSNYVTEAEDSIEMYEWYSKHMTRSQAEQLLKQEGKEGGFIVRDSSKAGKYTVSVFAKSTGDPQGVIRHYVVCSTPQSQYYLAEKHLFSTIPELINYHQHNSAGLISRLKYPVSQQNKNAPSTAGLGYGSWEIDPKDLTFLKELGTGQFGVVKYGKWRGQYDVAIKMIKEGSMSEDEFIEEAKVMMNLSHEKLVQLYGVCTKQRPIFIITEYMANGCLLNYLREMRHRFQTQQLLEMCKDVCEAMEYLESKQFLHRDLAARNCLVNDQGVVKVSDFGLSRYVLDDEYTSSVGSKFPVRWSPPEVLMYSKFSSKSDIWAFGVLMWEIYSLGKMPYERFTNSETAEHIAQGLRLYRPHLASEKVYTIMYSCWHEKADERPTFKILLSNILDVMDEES

COC(=O)C1=C(C)NC(C)=C(C(=O)OCc2ccccc2)C1c1cccc(C#N)c1 (racemic) [Compound 2e, (±)-3-Benzyl 5-methyl 4-(3-cyanophenyl)-2,6-dimethyl-1,4-dihydropyridine-3,5-dicarboxylate]
GI% K-562 (K-562): 56%
GI% EKVX (EKVX): 26%
GI% HOP-62 (HOP-62): 16%
GI% HOP-92 (HOP-92): 12%
GI% HCC-2998 (HCC-2998): – (Only GI% ≥ 10 are shown)
GI% HCT-15 (HCT-15): 66%
GI% SK-MEL-2 (SK-MEL-2): – (Only GI% ≥ 10 are shown)
GI% UACC-62 (UACC-62): 37%
GI% UO-31 (UO-31): – (Only GI% ≥ 10 are shown)
GI% MDA-MB-231 (MDA-MB-231): 30%
GI% HS578T (HS578T): 28%
GI% BT-549 (BT-549): – (Only GI% ≥ 10 are shown)
GI% T-47D (T-47D): 11%
RF (reversal fold activity) [1]: 7.68
EGFR Potency (EGFR): 67.68%
IC50 (EGFR): 80.4 ± 1.26 nM
HER-2 Potency (HER-2): 95.13%
IC50 (HER-2): 76.5 ± 0.87 nM
BTK Potency (BTK): 74.91%
IC50 (BTK): 82.1 ± 1.4 nM
early apoptosis ratio (lower-right quadrant) (HCT-116 cells [2]): 4.37–6.17%
late apoptosis ratio (upper-right quadrant) (HCT-116 cells [2]): 9.45–11.28%
%G0-G1 (HCT-116 cells [3]): 39.17–43.25%
%G2-M (HCT-116 cells [3]): 26.03–31.84%
%Pre-G1 (HCT-116 cells [3]): 15.57–19.36%
IC50 (HCT-116/ADR cells): 29400 ± 450 nM
IC50 (HCT-116 cells [4]): 1270 ± 420 nM
zone of inhibition at 1000 µg/mL (Pseudomonas aeruginosa): 7 mm
% activity index, P. aeruginosa (Pseudomonas aeruginosa): 30.4%
% activity index, C. albicans (Candida albicans): – (Values below 25 are of limited value and not shown as they refer either to inactive or non-diffusing compounds)

CCOC(=O)C1=C(C)NC(C)=C(C(=O)OCc2ccccc2)C1c1cccc(C#N)c1 (racemic) [Compound 2l, (±)-3- Benzyl 5-ethyl 4-(3-cyanophenyl)-2,6-dimethyl-1,4-dihydropyridine-3,5-dicarboxylate]
GI% K-562 (K-562): 83%
GI% EKVX (EKVX): 62%
GI% HOP-62 (HOP-62): 54%
GI% HOP-92 (HOP-92): 49%
GI% HCC-2998 (HCC-2998): 29%
GI% HCT-15 (HCT-15): 77%
GI% SK-MEL-2 (SK-MEL-2): 75%
GI% UACC-62 (UACC-62): 66%
GI% UO-31 (UO-31): 56%
GI% MDA-MB-231 (MDA-MB-231): 47%
GI% HS578T (HS578T): 59%
GI% BT-549 (BT-549): 68%
GI% T-47D (T-47D): 72%
RF (reversal fold activity) [1]: 10.05
EGFR Potency (EGFR): 72.29%
IC50 (EGFR): 75.2 ± 0.95 nM
HER-2 Potency (HER-2): 89.10%
IC50 (HER-2): 81.7 ± 0.92 nM
BTK Potency (BTK): 96.35%
IC50 (BTK): 63.8 ± 0.55 nM
early apoptosis ratio (lower-right quadrant) (HCT-116 cells [2]): 4.37–6.17%
late apoptosis ratio (upper-right quadrant) (HCT-116 cells [2]): 9.45–11.28%
%G0-G1 (HCT-116 cells [3]): 39.17–43.25%
%G2-M (HCT-116 cells [3]): 26.03–31.84%
%Pre-G1 (HCT-116 cells [3]): 15.57–19.36%
IC50 (HCT-116/ADR cells): 15830 ± 130 nM
IC50 (HCT-116 cells [4]): 1110 ± 450 nM
% activity index, P. aeruginosa (Pseudomonas aeruginosa): – (Values below 25 are of limited value and not shown as they refer either to inactive or non-diffusing compounds)
% activity index, C. albicans (Candida albicans): – (Values below 25 are of limited value and not shown as they refer either to inactive or non-diffusing compounds)

COCCOC(=O)C1=C(C)NC(C)=C(C(=O)OCCOC)C1c1cccc(C#N)c1 [Compound 1f, Di(2-methoxyethyl) 4-(3-cyanophenyl)-2,6-dimethyl-1,4-dihydropyridine-3,5-dicarboxylate]
GI% K-562 (K-562): – (Only GI% ≥ 10 are shown)
GI% EKVX (EKVX): – (Only GI% ≥ 10 are shown)
GI% HOP-62 (HOP-62): – (Only GI% ≥ 10 are shown)
GI% HOP-92 (HOP-92): – (Only GI% ≥ 10 are shown)
GI% HCC-2998 (HCC-2998): – (Only GI% ≥ 10 are shown)
GI% HCT-15 (HCT-15): – (Only GI% ≥ 10 are shown)
GI% SK-MEL-2 (SK-MEL-2): – (Only GI% ≥ 10 are shown)
GI% UACC-62 (UACC-62): – (Only GI% ≥ 10 are shown)
GI% UO-31 (UO-31): – (Only GI% ≥ 10 are shown)
GI% MDA-MB-231 (MDA-MB-231): – (Only GI% ≥ 10 are shown)
GI% HS578T (HS578T): – (Only GI% ≥ 10 are shown)
GI% BT-549 (BT-549): 12%
GI% T-47D (T-47D): – (Only GI% ≥ 10 are shown)
melting point: 125 to 126 °C
zone of inhibition at 1000 µg/mL (Pseudomonas aeruginosa): 17 mm
% activity index, P. aeruginosa (Pseudomonas aeruginosa): 73.9%
zone of inhibition at 1000 µg/mL (Candida albicans): 18 mm
% activity index, C. albicans (Candida albicans): 66.7%
MIC (S. aureus): 4 µg/mL (≈ 9.65 µM)
MIC (B. subtilis): 2 µg/mL (≈ 4.83 µM)
MIC (E. coli): 8 µg/mL (≈ 19.3 µM)
MIC (P. aeruginosa): 16 µg/mL (≈ 38.6 µM)
MIC (C. albicans): 16 µg/mL (≈ 38.6 µM)
MIC (A. flavus): 16 µg/mL (≈ 38.6 µM)

CC1=C(C(=O)OCc2ccccc2)C(c2cccc(C#N)c2)C(C(=O)OCc2ccccc2)=C(C)N1 [Compound 1g, Dibenzyl 4-(3-cyanophenyl)-2,6-dimethyl-1,4-dihydropyridine-3,5-dicarboxylate]
GI% K-562 (K-562): 69%
GI% EKVX (EKVX): 50%
GI% HOP-62 (HOP-62): 10%
GI% HOP-92 (HOP-92): 42%
GI% HCC-2998 (HCC-2998): – (Only GI% ≥ 10 are shown)
GI% HCT-15 (HCT-15): 72%
GI% SK-MEL-2 (SK-MEL-2): 19%
GI% UACC-62 (UACC-62): 38%
GI% UO-31 (UO-31): 34%
GI% MDA-MB-231 (MDA-MB-231): 37%
GI% HS578T (HS578T): 35%
GI% BT-549 (BT-549): – (Only GI% ≥ 10 are shown)
GI% T-47D (T-47D): 53%
RF (reversal fold activity) [1]: 23.48
EGFR Potency (EGFR): 87.44%
IC50 (EGFR): 62.2 ± 0.76 nM
HER-2 Potency (HER-2): 103.20%
IC50 (HER-2): 70.55 ± 0.63 nM
BTK Potency (BTK): 101.99%
IC50 (BTK): 60.27 ± 0.42 nM
early apoptosis ratio (lower-right quadrant) (HCT-116 cells [2]): 4.37–6.17%
late apoptosis ratio (upper-right quadrant) (HCT-116 cells [2]): 9.45–11.28%
%G0-G1 (HCT-116 cells [3]): 39.17–43.25%
%G2-M (HCT-116 cells [3]): 26.03–31.84%
%Pre-G1 (HCT-116 cells [3]): 15.57–19.36%
IC50 (HCT-116/ADR cells): 10610 ± 100 nM
IC50 (HCT-116 cells [4]): 990 ± 580 nM
zone of inhibition at 1000 µg/mL (Pseudomonas aeruginosa): 16 mm
% activity index, P. aeruginosa (Pseudomonas aeruginosa): 69.6%
zone of inhibition at 1000 µg/mL (Candida albicans): 10 mm
% activity index, C. albicans (Candida albicans): 37%
MIC (S. aureus): 64 µg/mL (≈ 134 µM)
MIC (B. subtilis): 32 µg/mL (≈ 66.9 µM)
MIC (E. coli): 32 µg/mL (≈ 66.9 µM)
MIC (P. aeruginosa): 32 µg/mL (≈ 66.9 µM)
MIC (C. albicans): 64 µg/mL (≈ 134 µM)
MIC (A. flavus): > 64 µg/mL
